Reference: patent US8383637B2, “2-amino-quinazoline derivatives useful as inhibitors of β-secretase (BACE)” (Jansssen Pharmaceutica N.V., priority 2004, dated 2013)
“And” between values parts separate entries of the source, which are not always exact repeats. Equal entries are not always repeated.

Columns and labels:
Type in all cases: biochemical
β-secretase(BACE) [1] = biological target: T1, β-secretase(BACE) (Homo sapiens, UniProt P56817); assay: BACE Assay-1 (MCA-substrate, IC50); settings: procedure of Example 158; read-out: IC50 μM (158)
T1 construct: purchased Panvera
In short: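 Human BACE (work solution 10 μg/mL) with MCA-peptide substrate (stock 2.0 mg/mL) in 0.05 M citrate buffer, pH 5.0, with PEG8000. Fluorescence read at T0 and T60; compounds tested at multiple concentrations and IC50 calculated from these readings.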

β-secretase(BACE) [2] = biological target: T1, β-secretase(BACE); assay: BACE % Inhibition Assay ((Aedens)-[…]-(Dabcyl K-amide) substrate); settings: % error ±10%; for inhibition at 3 µM / inhibition at 10 µM: read-out: % Inhibition; for inhibition at 0.3 µM: 0.3 μM test compound; for inhibition at 1 µM: 1 μM test compound
Protocol: The substrate stock solution was prepared in DMSO as a 10 mg/mL solution. The substrate working solution was prepared by diluting the 10 mg/mL stock solution with substrate assay buffer to a final concentration of 300 μg/mL. The β-secretase (BACE) working solution was prepared by diluting a 0.83 mg/mL BACE stock solution with enzyme assay buffer to a final concentration of 4 μg/mL.
Test compounds were dissolved in DMSO to 10 mM.
The screening procedure for this assay was as follows: 15 μL of BACE working solution was pipetted into each well of a 96-well plate. To each well was then pipetted 2 μL of test compound at the selected concentration. Test compound and BACE were then mixed with a pipettor and incubated for 20 min at room temperature. To each well was then added 10 μL of the substrate working solution. The plates were then incubated for 1 hour at room temperature.
The procedure for the blank was as follows. 15 μL of assay buffer was pipetted into each well to be used as a blank control. To each well was then added 2 μL of vehicle and 10 μL of substrate working solution. The plates were then incubated for 1 hour at room temperature.
The procedure for the positive control was as follows: 15 μl of BACE working solution was pipetted into each well to be used as a positive control. To each well was then pipetted 2 μL of vehicle. Vehicle and BACE were then mixed with a pipettor and incubated for 20 min at room temperature. To each well was then added 10 μL of the substrate working solution. The plates were then incubated for 1 hour at room temperature.
For test compounds, % inhibition was determined at each concentration as follows: […]

β-secretase(BACE) [3] = biological target: T1, β-secretase(BACE); assay: BACE Assay-2 (FS1 substrate, IC50 and Ki); settings: procedure of Example 159, FS1 substrate; for Ki: read-out: Ki μM (159)
β-secretase(BACE) [4] = biological target: T1, β-secretase(BACE); assay: BACE FS1% Inhibition Assay; settings: FS1 substrate
In short: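 Human BACE (4 μg/mL working solution) preincubated 20 min at room temperature with compound, then FS1 substrate (300 μg/mL working solution) added and incubated 1 h at room temperature. Percent inhibition calculated at each compound concentration against blank and vehicle controls.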

T1 sequence (P56817 46-501): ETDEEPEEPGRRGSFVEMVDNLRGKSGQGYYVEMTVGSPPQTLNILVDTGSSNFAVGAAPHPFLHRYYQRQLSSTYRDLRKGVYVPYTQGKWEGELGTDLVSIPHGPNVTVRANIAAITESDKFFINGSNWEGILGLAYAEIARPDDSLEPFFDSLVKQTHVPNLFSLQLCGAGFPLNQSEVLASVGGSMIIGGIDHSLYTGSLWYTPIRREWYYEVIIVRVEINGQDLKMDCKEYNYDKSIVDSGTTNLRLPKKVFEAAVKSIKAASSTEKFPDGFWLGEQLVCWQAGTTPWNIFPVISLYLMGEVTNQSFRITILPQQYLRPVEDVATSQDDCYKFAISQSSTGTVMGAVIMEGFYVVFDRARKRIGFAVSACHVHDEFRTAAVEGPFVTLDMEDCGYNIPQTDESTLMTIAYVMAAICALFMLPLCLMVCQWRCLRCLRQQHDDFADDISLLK

| Molecule | IC50 (β-secretase(BACE) [1]) | % Inhibition (β-secretase(BACE) [2]; 3 μM test compound) | % Inhibition (β-secretase(BACE) [2]; 10 μM test compound) | IC50 (β-secretase(BACE) [3]) | Ki (β-secretase(BACE) [3]) | inhibition at 3 µM (β-secretase(BACE) [2]; 3 μM test compound) | inhibition at 10 µM (β-secretase(BACE) [2]; 10 μM test compound) | % Inhibition (FS) 0.3 μM (β-secretase(BACE) [4]; 0.3 μM test compound) | % Inhibition (FS) 1 μM (β-secretase(BACE) [4]; 1 μM test compound) | % Inhibition (FS) 3 μM (β-secretase(BACE) [4]; 3 μM test compound) | inhibition at 0.3 µM (β-secretase(BACE) [2]) | inhibition at 1 µM (β-secretase(BACE) [2]) | % Inhibition (β-secretase(BACE) [2]; 3 μM test compound, 3 µM) |
| --- | --- | --- | --- | --- | --- | --- | --- | --- | --- | --- | --- | --- | --- |
| 3-(2-Amino-6-phenoxy-4H-quinazolin-3-yl)-pentanedioic acid bis-(cyclohexyl-methyl-amide) [Compound 107] | 0.82 µM | 48% | 78% | 4.58 µM | 1.2 µM | – | – | – | – | – | – | – | – |
| NC1=Nc2ccc(C(=O)c3ccccc3)cc2CN1CCNC(=O)C1CCCCC1 [Compound 7, Cyclohexanecarboxylic acid [2-(2-amino-6-benzoyl-4H-quinazolin-3-yl)-ethyl]-amide] | 1.4 µM | – | – | 5.3 µM | 0.24 µM | 76% | 87% | – | – | – | – | – | – |
| CN(CCCN1Cc2cc(C(=O)c3ccccc3)ccc2N=C1N)C1CCCCC1 [Compound 15, {2-Amino-3-[3-(cyclohexyl-methyl-amino)-propyl]-3,4-dihydro-quinazolin-6-yl}-phenyl-methanone] | 2.3 µM | – | – | – | 4 µM | 42% | 69% | – | – | – | – | – | – |
| NC1=Nc2ccc(Oc3ccccc3)cc2CN1CCCCC(=O)N(C1CCCCC1)C1CCCCC1 [Compound 19] | 0.18 µM | – | – | 1.6 µM | 0.38 µM | 67% | 92% | – | – | – | – | – | – |
| CN(C(=O)CCN1Cc2cc(Oc3ccccc3)ccc2N=C1N)C1CCCCC1 [Compound 20, 3-(2-Amino-6-phenoxy-4H-quinazolin-3-yl)-N-cyclohexyl-N-methyl-propionamide] | 0.48 µM | – | – | 2.1 µM | 0.34 µM | 68% | 83% | – | – | – | – | – | – |
| CN(CCN1Cc2cc(C(=O)c3ccccc3)ccc2N=C1N)C(=O)C1CCCCC1 [Compound 23] | 4.9 µM | – | – | 10 µM | 1.1 µM | 47% | 76% | – | – | – | – | – | – |
| CN(C(=O)CCCCN1Cc2cc(C(=O)c3ccccc3)ccc2N=C1N)C1CCCCC1 [Compound 27] | 1.2 µM | – | – | 3 µM | 0.66 µM | 63% | 81% | – | – | – | – | – | – |
| NC1=Nc2ccc(C(=O)c3ccccc3)cc2CN1CCCCNC(=O)C1CCCCC1 [Compound 30] | 11 µM | – | – | 20 µM | 2.3 µM | 32% | 48% | – | – | – | – | – | – |
| NC1=Nc2ccc(C(=O)c3ccccc3)cc2CN1CCCCC(=O)N(C1CCCCC1)C1CCCCC1 [Compound 46] | 0.6 µM | – | – | 2.1 µM | 0.6 µM | 66% | 82% | – | – | – | – | – | – |
| CCCN1Cc2cc(Oc3cccc(N(C(=O)OCc4ccccc4)C4CCCCC4)c3)ccc2N=C1N [Compound 49] | 0.8 µM | – | – | 2.8 µM | 0.84 µM | 56% | 90% | – | – | – | – | – | – |
| CN(CCc1ccccc1)C(=O)CCCCN1Cc2cc(C(=O)c3ccccc3)ccc2N=C1N [Compound 50] | 1 µM | – | – | 11 µM | 0.53 µM | < 30% | 34% | – | – | – | – | – | – |
| CN(Cc1cccc2ccccc12)C(=O)CCCCN1Cc2cc(C(=O)c3ccccc3)ccc2N=C1N [Compound 51] | 2.2 µM | – | – | 13 µM | 1.2 µM | < 30% | 56% | – | – | – | – | – | – |
| CCCN1Cc2cc(Oc3cccc(NC4CCCCC4)c3)ccc2N=C1N [Compound 53] | 1 µM | – | – | 6.8 µM | 0.82 µM | 34% | 82% | – | – | – | – | – | – |
| CCCN1Cc2cc(Oc3cccc(NCC4CCCCC4)c3)ccc2N=C1N [Compound 55] | 0.28 µM | – | – | 2.4 µM | 0.79 µM | 62% | 95% | – | – | – | – | – | – |
| CCCN1Cc2cc(Oc3cccc(NS(=O)(=O)c4ccccc4)c3)ccc2N=C1N [Compound 61] | 0.2 µM | – | – | 0.44 µM | 0.23 µM | 75% | 87% | – | – | – | – | – | – |
| CCCN1Cc2cc(Oc3cccc(NC(=O)OCc4ccccc4)c3)ccc2N=C1N [Compound 67] | 0.68 µM | – | – | 3.9 µM | 0.81 µM | 44% | 71% | – | – | – | – | – | – |
| CC(C)(C)OC(=O)NCCN1Cc2cc(Oc3ccccc3)ccc2N=C1N [Compound 80] | 0.11 µM | – | – | 0.94 µM | 0.12 µM | 61% | 80% | – | – | – | – | – | – |
| CN(C(=O)CCC(CCC(=O)N(C)C1CCCCC1)N1Cc2cc(Oc3ccccc3)ccc2N=C1N)C1CCCCC1 [Compound 84, 4-(2-Amino-6-phenoxy-4H-quinazolin-3-yl)-heptanedioic acid bis-(cyclohexyl-methyl-amide)] | 0.47 µM | – | – | 3.1 µM | 0.76 µM | 38% | 63% | – | – | – | – | – | – |
| CN(C(=O)c1cc(CN2Cc3cc(Oc4ccccc4)ccc3N=C2N)ccn1)C1CCCCC1 [Compound 89] | – | – | – | 0.4 µM | – | 77% | 81% | – | – | – | – | – | – |
| CC(C)(C)OC(=O)NCCCCN1Cc2cc(Oc3ccccc3)ccc2N=C1N [Compound 101] | – | – | – | 11 µM | – | 45% | 64% | – | – | – | – | – | – |
| CC(C)(C)OC(=O)NCCCN1Cc2cc(Oc3ccccc3)ccc2N=C1N [Compound 103] | – | – | – | 3.6 µM | 4 µM | 56% | 74% | – | – | – | – | – | – |
| CCCC(CCCC(=O)N(CC)C1CCCCC1)N1Cc2cc(Oc3ccccc3)ccc2N=C1N (stereo not drawn) [Compound 105] | – | <30% | <30% | – | – | – | – | <30% | <30% | <30% | – | – | – |
| NC1=Nc2ccc(Oc3ccccc3)cc2CN1CCCNC(=O)C1CCCCC1 [Compound 108] | 0.32 µM | – | – | 0.954 µM | 0.076 µM | 73% | 90% | – | – | – | – | – | – |
| NC1=Nc2ccc(Oc3ccccc3)cc2CN1CCNC(=O)C1CCCCC1 [Compound 111, Cyclohexanecarboxylic acid [2-(2-amino-6-phenoxy-4H-quinazolin-3-yl)-ethyl]-amide] | 0.1 µM | – | – | – | 0.082 µM and 0.067 µM | – | 94% | – | – | – | 63% | 96% | 84% and 115% |
| NC1=Nc2ccc(Oc3ccccc3)cc2CN1CCNC(=O)C1CCCC1 [Compound 112] | 0.12 µM | – | – | – | 0.59 µM | 88% | 92% | – | – | – | – | – | – |
| NC1=Nc2ccc(Oc3ccccc3)cc2CN1CCC(=O)NC12CC3CC(CC(C3)C1)C2 [Compound 365] | – | – | – | – | 0.1 µM | 113% | – | – | – | – | < 30% | 86% | – |
| NC1=Nc2ccc(Oc3ccccc3)cc2CN1C(CNC(=O)CCC1CCCC1)C1CCCCC1 (stereo not drawn) [Compound 366] | – | – | – | – | 0.067 µM | 119% | – | – | – | – | 64% | 113% | – |
| CC(C)(C)OC(=O)NCC(C1CCCCC1)N1Cc2cc(Oc3ccccc3)ccc2N=C1N (stereo not drawn) [Compound 367] | – | – | – | – | 0.12 µM | 111% | – | – | – | – | < 30% | 80% | – |
| CC(C)CC(=O)NCC(C1CCCCC1)N1Cc2cc(Oc3ccccc3)ccc2N=C1N (stereo not drawn) [Compound 389] | – | – | – | – | 0.028 µM | 120% | – | – | – | – | 85% | 112% | – |
